Measurements reported in US10645922B2, “Methods and compositions for pest bait” (Dow AgroSciences LLC, priority 2015, dated 2020).
“Also recorded” adds a separate entry of the source.

Test system: termites
Assay: Two-way choice bioassay, filter paper consumption by termite workers
Assay type: in vivo, Reticulitermes flavipes
Details: FIG. 1A, FIG. 1B; series of experiments and validated tests
Experimental: Two-way choice bioassays are conducted with the granule formulation containing 1% 1-MCP in weight boats. Test materials are placed in weigh boats to prevent physical contact of termite workers with test material. Filter papers associated with 1-MCP are used to qualify consumption. Bioassay arenas are placed inside sealed plastic containers with open moisture sources to maintain high humidity for releasing 1-MCP from the granule formulation. […] The experiment results are also shown in Table 1, where negative control uses granules having 22% alpha-cyclodextrin+78% sodium bentonite.

Q: `CC1=CC1` [1-MCP, 1-methylcyclopropene] was tested. Which “Filter paper consumption in presence of 1-MCP (in words)” value did it give?
A: Significant higher consumption; also recorded: significantly increase
